Laboratory results taken from ChEMBL document CHEMBL1914338, “Tricyclic series of heat shock protein 90 (Hsp90) inhibitors part I: discovery of tricyclic imidazo[4,5-c]pyridines as potent inhibitors of the Hsp90 molecular chaperone” (J Med Chem, 2011).

Assays:
[1] = biological target: T1, Heat shock protein HSP 90-beta (Homo sapiens, UniProt P08238)
Description: Inhibition of human Hsp90beta after overnight incubation by fluorescence polarization assay

[2] = biological target: T1, Heat shock protein HSP 90-beta; remark: listed apart in the source
Description: Inhibition of HSP90beta in human SKBR3 cells assessed as down regulation of HER2 expression levels after 24 hrs by FACS analysis

P388 [3] = assay: Antitumor activity in mouse P388 cells xenografted in B6D2F1 mouse assessed as median day of death at 80 mg/kg/day, ip for 4 days (reference value: 10 days); type: functional; conditions: route intraperitoneal
P388 [4] = assay: Antitumor activity in mouse P388 cells xenografted in B6D2F1 mouse assessed as increase in mouse life span at 80 mg/kg/day, ip for 4 days relative to control; type: functional; conditions: route intraperitoneal
[5] = biological target: T1, Heat shock protein HSP 90-beta; remark: listed apart in the source
Description: Binding affinity to human Hsp90beta assessed as association constant after overnight incubation by fluorescence polarization assay

T1 sequence (P08238 whole entry): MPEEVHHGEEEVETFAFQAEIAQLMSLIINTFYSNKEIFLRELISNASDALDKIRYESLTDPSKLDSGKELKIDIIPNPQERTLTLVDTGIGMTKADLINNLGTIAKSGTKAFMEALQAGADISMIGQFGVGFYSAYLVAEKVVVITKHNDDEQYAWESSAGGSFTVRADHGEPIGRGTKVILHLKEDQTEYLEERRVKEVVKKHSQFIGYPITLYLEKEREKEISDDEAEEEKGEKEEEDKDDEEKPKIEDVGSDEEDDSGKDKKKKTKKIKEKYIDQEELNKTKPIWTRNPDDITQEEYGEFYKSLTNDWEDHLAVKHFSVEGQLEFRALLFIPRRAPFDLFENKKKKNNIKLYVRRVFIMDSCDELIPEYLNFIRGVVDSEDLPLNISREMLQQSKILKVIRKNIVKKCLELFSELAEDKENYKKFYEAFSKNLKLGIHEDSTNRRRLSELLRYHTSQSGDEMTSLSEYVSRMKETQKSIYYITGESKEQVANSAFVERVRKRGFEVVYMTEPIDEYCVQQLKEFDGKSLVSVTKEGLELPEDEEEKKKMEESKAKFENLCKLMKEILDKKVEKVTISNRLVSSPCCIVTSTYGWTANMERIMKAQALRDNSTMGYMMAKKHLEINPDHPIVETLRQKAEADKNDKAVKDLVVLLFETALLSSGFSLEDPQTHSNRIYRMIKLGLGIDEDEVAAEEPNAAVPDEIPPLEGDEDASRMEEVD

Compound	IC50 [2] [µM]	also measured
Cc1onc(-c2ccc(O)cc2O)c1-c1ccccc1	–	IC50 [1]: 7.6 µM
O=C1c2ccccc2C2=C(c3nc4ccncc4[nH]3)CCCN12	> 50	–
O=C1c2ccccc2-c2c1cccc2-c1nc2cnccc2[nH]1	> 50	–
NC(=O)CCC(=O)NC1c2ccccc2-c2c(-c3nc4cnccc4[nH]3)cccc21 (racemic)	50	–
O=C(NC1c2ccccc2-c2c(-c3nc4ccncc4[nH]3)cccc21)c1ccncc1 (racemic)	1.3	–
O=C(NC1c2ccccc2-c2c(-c3nc4ccccc4[nH]3)cccc21)c1cccc2ncccc12 (racemic)	1.3	–
Nc1cc(C(=O)NC2c3ccccc3-c3c(-c4nc5ccncc5[nH]4)cccc32)ccn1 (racemic)	0.9	–
C=CCNC1=C2C[C@@H](C)C[C@H](OC)[C@H](O)[C@@H](C)/C=C(\C)[C@H](OC(N)=O)[C@@H](OC)/C=C\C=C(/C)C(=O)NC(=CC1=O)C2=O [TANESPIMYCIN]	–	Time (P388 [3]): 13 days; Activity (P388 [4]): 30%; Ka [5]: 1.2 ×10⁴ /M/s
